In patent US12679822B2, “Alkenyl pyrimidine compound, preparation method therefor, and application thereof” (Hongyun Biotech Co., Ltd., priority 2020, dated 2026):

Columns and labels:
Type in all cases: cell-based
[1] = biological target: BaF3 cell lines stably transfected with kinase EGFR Del/T790M/C797S (Homo sapiens, UniProt P00533, T790M/C797S, cells depend on it, form not given); experiment: Growth inhibition of BaF3 cell line stably transfected with kinase EGFR Del/T790M/C797S (MTS); conditions: 48 h, read-out: growth inhibitory activity IC50, Del/T790M/C797S
Chain of BaF3 cell lines stably transfected with kinase EGFR Del/T790M/C797S (P00533 with tags, fused parts or gaps DEL746-750/T790M/C797S, form open): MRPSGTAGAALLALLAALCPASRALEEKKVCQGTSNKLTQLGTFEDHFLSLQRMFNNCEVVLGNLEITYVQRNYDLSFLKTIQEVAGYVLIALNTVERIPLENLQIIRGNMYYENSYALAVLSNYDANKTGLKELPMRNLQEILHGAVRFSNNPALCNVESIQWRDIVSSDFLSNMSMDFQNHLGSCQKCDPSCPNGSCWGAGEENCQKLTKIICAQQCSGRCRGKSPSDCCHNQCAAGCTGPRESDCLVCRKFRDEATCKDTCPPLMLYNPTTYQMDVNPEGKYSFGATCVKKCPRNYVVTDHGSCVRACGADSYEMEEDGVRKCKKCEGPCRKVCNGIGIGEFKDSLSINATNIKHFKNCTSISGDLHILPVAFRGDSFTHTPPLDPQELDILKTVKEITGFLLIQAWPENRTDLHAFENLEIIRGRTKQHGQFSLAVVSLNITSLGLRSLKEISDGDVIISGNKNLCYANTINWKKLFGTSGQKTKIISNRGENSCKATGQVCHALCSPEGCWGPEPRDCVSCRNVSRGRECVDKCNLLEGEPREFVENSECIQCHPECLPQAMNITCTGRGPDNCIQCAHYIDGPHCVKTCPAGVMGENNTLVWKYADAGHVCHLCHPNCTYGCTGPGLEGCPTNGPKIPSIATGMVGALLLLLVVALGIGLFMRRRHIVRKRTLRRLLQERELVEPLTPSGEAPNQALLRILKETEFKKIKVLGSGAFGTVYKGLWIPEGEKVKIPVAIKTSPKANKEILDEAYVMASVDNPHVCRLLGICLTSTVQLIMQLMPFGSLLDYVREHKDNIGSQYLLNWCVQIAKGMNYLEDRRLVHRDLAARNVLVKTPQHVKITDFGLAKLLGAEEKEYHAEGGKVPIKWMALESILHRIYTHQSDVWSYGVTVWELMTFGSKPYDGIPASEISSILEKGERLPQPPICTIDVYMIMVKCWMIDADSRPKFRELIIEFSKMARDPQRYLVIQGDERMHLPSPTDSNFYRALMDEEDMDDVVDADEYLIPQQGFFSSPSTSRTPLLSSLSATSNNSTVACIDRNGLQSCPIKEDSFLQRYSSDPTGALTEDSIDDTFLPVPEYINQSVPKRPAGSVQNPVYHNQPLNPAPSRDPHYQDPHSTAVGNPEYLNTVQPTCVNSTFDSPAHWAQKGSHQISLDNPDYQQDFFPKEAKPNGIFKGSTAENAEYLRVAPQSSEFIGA
In short: (§1)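 Transfected BaF3 cells exposed 48 h at 37 °C to 8-point, 1/3-step dilutions from 10 μM top in 0.1% DMSO, duplicates. MTS/PES added for 1-4 h, OD 490 nm read; inhibition normalised to DMSO and cell-free blank, IC50 fitted from inhibition rates.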

[2] = biological target: BaF3 cell lines stably transfected with kinase EGFR Del (Homo sapiens, UniProt P00533, cells depend on it, form not given); experiment: Growth inhibition of BaF3 cell line stably transfected with kinase EGFR Del (MTS); conditions: 48 h, read-out: growth inhibitory activity IC50, Del
In short: as §1

[3] = biological target: BaF3 cell lines stably transfected with kinase EGFR L858R/T790M/C797S (Homo sapiens, UniProt P00533, T790M/C797S/L858R, cells depend on it); experiment: Growth inhibition of BaF3 cell line stably transfected with kinase EGFR L858R/T790M/C797S (MTS); conditions: 48 h, read-out: growth inhibitory activity IC50, L858R/T790M/C797S
Chain of BaF3 cell lines stably transfected with kinase EGFR L858R/T790M/C797S (P00533 whole entry T790M/C797S/L858R): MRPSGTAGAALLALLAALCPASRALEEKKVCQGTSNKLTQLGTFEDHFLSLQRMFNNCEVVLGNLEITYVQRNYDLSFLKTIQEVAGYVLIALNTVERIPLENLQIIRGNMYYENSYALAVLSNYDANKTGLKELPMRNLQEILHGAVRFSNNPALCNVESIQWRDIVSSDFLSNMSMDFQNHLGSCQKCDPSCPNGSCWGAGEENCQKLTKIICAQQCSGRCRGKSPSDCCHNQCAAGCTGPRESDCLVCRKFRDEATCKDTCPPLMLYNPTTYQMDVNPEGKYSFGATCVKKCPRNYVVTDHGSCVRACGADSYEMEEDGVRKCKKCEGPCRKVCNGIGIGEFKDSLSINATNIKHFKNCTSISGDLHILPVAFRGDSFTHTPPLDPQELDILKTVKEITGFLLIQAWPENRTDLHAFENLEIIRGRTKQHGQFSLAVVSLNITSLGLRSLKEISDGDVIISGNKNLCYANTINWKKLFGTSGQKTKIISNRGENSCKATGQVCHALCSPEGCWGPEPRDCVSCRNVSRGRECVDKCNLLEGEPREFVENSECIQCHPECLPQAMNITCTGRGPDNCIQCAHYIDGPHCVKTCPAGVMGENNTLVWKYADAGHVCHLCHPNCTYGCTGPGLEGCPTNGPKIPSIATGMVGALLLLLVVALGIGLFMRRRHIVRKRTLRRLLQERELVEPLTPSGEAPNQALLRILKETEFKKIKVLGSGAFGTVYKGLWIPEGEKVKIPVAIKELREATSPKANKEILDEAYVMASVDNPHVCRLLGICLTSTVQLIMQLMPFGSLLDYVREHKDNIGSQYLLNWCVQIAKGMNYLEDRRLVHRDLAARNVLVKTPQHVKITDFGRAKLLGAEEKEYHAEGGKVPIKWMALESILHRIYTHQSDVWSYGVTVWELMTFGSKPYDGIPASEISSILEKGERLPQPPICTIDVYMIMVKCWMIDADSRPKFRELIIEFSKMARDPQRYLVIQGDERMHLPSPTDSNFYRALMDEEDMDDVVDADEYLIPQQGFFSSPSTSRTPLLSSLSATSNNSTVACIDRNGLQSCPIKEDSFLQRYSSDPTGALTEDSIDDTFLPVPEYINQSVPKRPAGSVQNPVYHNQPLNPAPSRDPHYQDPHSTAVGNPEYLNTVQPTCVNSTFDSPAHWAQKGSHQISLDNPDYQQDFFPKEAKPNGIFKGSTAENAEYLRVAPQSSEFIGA
In short: as §1

[4] = biological target: BaF3 cell lines stably transfected with kinase EGFR Del/T790M (Homo sapiens, UniProt P00533, T790M, cells depend on it, form not given); experiment: Growth inhibition of BaF3 cell line stably transfected with kinase EGFR Del/T790M (MTS); conditions: 48 h, read-out: growth inhibitory activity IC50, Del/T790M
Chain of BaF3 cell lines stably transfected with kinase EGFR Del/T790M (P00533 with tags, fused parts or gaps DEL746-750/T790M, form open): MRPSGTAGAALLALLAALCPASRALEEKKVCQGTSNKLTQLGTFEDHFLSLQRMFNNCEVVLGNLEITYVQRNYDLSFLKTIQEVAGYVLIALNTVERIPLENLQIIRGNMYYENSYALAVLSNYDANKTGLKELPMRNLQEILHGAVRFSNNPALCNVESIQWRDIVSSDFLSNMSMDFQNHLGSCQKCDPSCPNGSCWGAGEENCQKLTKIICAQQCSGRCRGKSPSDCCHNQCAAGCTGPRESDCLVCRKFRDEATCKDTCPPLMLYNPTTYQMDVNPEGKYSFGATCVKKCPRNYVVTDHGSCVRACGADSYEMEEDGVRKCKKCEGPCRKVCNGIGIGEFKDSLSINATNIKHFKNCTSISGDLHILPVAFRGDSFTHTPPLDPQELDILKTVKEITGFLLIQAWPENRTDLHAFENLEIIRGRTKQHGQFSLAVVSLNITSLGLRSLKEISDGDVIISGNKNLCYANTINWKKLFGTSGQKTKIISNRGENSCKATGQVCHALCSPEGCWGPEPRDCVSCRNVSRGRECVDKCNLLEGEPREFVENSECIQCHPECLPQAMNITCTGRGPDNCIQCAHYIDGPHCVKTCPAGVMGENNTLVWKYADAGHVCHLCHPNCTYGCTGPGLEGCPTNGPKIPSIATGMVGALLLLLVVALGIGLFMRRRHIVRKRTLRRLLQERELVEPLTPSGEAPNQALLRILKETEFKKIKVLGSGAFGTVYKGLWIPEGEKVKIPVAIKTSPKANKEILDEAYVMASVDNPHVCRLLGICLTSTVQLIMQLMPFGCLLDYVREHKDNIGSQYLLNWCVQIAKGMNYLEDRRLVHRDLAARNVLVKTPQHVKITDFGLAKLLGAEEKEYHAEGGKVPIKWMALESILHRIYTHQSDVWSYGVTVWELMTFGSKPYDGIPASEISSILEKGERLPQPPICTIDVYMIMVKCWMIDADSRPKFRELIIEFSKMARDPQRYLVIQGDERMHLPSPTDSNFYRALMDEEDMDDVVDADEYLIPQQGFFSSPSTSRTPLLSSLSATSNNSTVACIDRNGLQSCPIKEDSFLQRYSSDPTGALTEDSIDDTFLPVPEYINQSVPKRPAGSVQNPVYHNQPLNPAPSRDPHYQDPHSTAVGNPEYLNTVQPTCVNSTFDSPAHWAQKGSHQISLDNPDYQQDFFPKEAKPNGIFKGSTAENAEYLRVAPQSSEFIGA
In short: as §1

[5] = biological target: BaF3 cell lines stably transfected with kinase EGFR L858R/T790M (Homo sapiens, UniProt P00533, T790M/L858R, cells depend on it); experiment: Growth inhibition of BaF3 cell line stably transfected with kinase EGFR L858R/T790M (MTS); conditions: 48 h, read-out: growth inhibitory activity IC50, L858R/T790M
Chain of BaF3 cell lines stably transfected with kinase EGFR L858R/T790M (P00533 whole entry T790M/L858R): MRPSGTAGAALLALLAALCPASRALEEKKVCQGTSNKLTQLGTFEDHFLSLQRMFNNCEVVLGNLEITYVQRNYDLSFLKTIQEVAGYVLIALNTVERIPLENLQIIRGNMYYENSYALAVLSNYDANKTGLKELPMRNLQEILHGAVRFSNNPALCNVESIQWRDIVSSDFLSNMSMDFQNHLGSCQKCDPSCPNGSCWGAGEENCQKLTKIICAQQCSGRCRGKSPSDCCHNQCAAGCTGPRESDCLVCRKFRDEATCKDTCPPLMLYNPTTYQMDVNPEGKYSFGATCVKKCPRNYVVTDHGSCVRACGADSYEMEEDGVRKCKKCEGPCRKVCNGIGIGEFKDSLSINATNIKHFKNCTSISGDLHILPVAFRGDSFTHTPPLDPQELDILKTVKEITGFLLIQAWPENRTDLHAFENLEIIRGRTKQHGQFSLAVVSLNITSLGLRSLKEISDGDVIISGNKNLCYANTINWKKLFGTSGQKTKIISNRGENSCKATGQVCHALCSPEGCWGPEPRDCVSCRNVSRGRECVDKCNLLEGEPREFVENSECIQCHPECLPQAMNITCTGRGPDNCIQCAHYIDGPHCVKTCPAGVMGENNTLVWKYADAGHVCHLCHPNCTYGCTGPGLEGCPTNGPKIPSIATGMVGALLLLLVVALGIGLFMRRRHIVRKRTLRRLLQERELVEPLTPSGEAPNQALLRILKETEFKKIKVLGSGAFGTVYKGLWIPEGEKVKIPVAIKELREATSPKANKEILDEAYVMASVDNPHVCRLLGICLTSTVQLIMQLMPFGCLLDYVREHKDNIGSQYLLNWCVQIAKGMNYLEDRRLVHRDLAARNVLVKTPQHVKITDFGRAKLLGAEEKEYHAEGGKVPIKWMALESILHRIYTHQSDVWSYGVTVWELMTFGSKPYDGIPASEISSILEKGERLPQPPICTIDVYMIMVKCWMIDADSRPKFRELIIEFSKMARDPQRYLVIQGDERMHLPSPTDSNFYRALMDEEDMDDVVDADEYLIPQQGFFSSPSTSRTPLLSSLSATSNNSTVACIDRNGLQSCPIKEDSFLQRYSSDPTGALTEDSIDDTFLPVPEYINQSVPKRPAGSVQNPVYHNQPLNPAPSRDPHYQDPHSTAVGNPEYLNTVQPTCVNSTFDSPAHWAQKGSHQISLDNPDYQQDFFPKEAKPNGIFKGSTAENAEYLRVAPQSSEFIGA
In short: as §1

[6] = biological target: BaF3 cell lines stably transfected with kinase EGFR L858R (Homo sapiens, UniProt P00533, L858R, cells depend on it); experiment: Growth inhibition of BaF3 cell line stably transfected with kinase EGFR L858R (MTS); conditions: 48 h, read-out: growth inhibitory activity IC50, L858R
In short: as §1

| Structure (SMILES) | GI50 [1] [nM] | GI50 [2] [nM] | GI50 [3] [nM] | GI50 [4] [nM] | GI50 [5] [nM] | GI50 [6] [nM] |
| --- | --- | --- | --- | --- | --- | --- |
| C=Cc1cnc(Nc2cc(CC)c(N3CCC(N4CCN(C)CC4)CC3)cc2OC)nc1Nc1ccc2nccnc2c1N(C)S(=O)(=O)CC [II-9] | 50 to 500 | 50 to 500 | ≤ 50 | ≤ 50 | 50 to 500 | 50 to 500 |
| C=Cc1cnc(Nc2cc(C3CC3)c(N3CCC(N4CCN(C)CC4)CC3)cc2OC)nc1Nc1ccc2nccnc2c1NS(C)(=O)=O [II-36] | 50 to 500 | ≤ 50 | ≤ 50 | ≤ 50 | 50 to 500 | ≤ 50 |
| C=Cc1cnc(Nc2ccc(N3CCC(N4CCN(C)CC4)CC3)cc2OC)nc1Nc1ccc2nccnc2c1S(=O)(=O)C(C)C [III-18] | 500 to 2500 | 500 to 2500 | 500 to 2500 | 500 to 2500 | 50 to 500 | 50 to 500 |
| C=Cc1cnc(Nc2cc(CC)c(N3CCC(N4CCN(C)CC4)CC3)cc2OC)nc1Nc1ccc2nccnc2c1P(C)(C)=O [Compound I-1] | ≤ 50 | ≤ 50 | ≤ 50 | ≤ 50 | ≤ 50 | ≤ 50 |
| C=C(C)c1cnc(Nc2ccc(N3CCC(N4CCN(C)CC4)CC3)c(CC)c2)nc1Nc1ccc2nccnc2c1N(C)S(C)(=O)=O [II-24] | 50 to 500 | ≤ 50 | 50 to 500 | ≤ 50 | ≤ 50 | ≤ 50 |
| C=Cc1cnc(Nc2ccc(N3CCC(N4CCN(C)CC4)CC3)c(CC)c2)nc1Nc1ccc2nccnc2c1P(C)(C)=O [Compound I-18] | ≤ 50 | 50 to 500 | ≤ 50 | 50 to 500 | 50 to 500 | ≤ 50 |
| CCc1cc(Nc2ncc(C=C(C)C)c(Nc3ccc4nccnc4c3N(C)S(C)(=O)=O)n2)c(OC)cc1N1CCC(N2CCN(C)CC2)CC1 [II-26] | 500 to 2500 | ≤ 50 | 500 to 2500 | 500 to 2500 | 500 to 2500 | 50 to 500 |
| C=Cc1cnc(Nc2cccc(C3CCN(C)CC3)c2)nc1Nc1ccc2nccnc2c1P(C)(C)=O [Compound I-22] | 500 to 2500 | 50 to 500 | 50 to 500 | 50 to 500 | ≤ 50 | 50 to 500 |
| C=Cc1cnc(Nc2cc(CC)c(N3CCC(C4CN(C)C4)CC3)cc2OC)nc1Nc1ccc2nccnc2c1N(C)S(C)(=O)=O [II-54] | ≤ 50 | ≤ 50 | ≤ 50 | ≤ 50 | 50 to 500 | ≤ 50 |
| C=C(C)c1cnc(Nc2ccc(N3CCC(N4CCN(C)CC4)CC3)nc2OC)nc1Nc1ccc2nccnc2c1P(C)(C)=O [Compound I-19] | 500 to 2500 | ≤ 50 | 50 to 500 | 50 to 500 | ≤ 50 | 50 to 500 |
| C=Cc1cnc(Nc2cc(CC)c(N3CCC(N4CCN(C)CC4)CC3)cc2OC(F)(F)F)nc1Nc1ccc2nccnc2c1N(C)S(C)(=O)=O [II-6] | ≤ 50 | 50 to 500 | 50 to 500 | ≤ 50 | 50 to 500 | 50 to 500 |
| C=Cc1cnc(Nc2cc(CC)c(NCCN(C)C)cc2OC)nc1Nc1ccc2nccnc2c1N(C)S(C)(=O)=O [II-50] | 50 to 500 | 500 to 2500 | 50 to 500 | 50 to 500 | 50 to 500 | 500 to 2500 |
| C=Cc1cnc(Nc2cc3c(cc2OC)CCN(C)C3)nc1Nc1ccc2nccnc2c1N(C)S(C)(=O)=O [II-73] | 500 to 2500 | 500 to 2500 | 50 to 500 | 500 to 2500 | 500 to 2500 | 500 to 2500 |
| C=Cc1cnc(Nc2cc(CC)c(N3CCC(N(C)C)CC3)cc2OC)nc1Nc1ccc2nccnc2c1P(C)(C)=O [Compound I-2] | ≤ 50 | ≤ 50 | ≤ 50 | ≤ 50 | ≤ 50 | ≤ 50 |
| C=Cc1cnc(Nc2cc(CC)c(N3CCC(N(C)C)C3)cc2OC)nc1Nc1ccc2nccnc2c1S(C)(=O)=O (stereo not drawn) [III-3] | 500 to 2500 | 500 to 2500 | 500 to 2500 | 500 to 2500 | 50 to 500 | 500 to 2500 |
| C=Cc1cnc(Nc2cc(C)n(C)n2)nc1Nc1ccc2nccnc2c1N(C)S(C)(=O)=O [II-62] | 50 to 500 | 500 to 2500 | 50 to 500 | 500 to 2500 | 500 to 2500 | 500 to 2500 |

| Structure (SMILES) | GI50 [1] [nM] | GI50 [2] [nM] | GI50 [3] [nM] | GI50 [4] [nM] | GI50 [5] [nM] | GI50 [6] [nM] |
| --- | --- | --- | --- | --- | --- | --- |
| C=Cc1cnc(Nc2cc(CC)c(N3CCN(C)CC3)cc2OC)nc1Nc1ccc2nccnc2c1S(=O)(=O)NC [IV-15] | 50 to 500 | 50 to 500 | 50 to 500 | 50 to 500 | 50 to 500 | 50 to 500 |
| C=Cc1cnc(Nc2cc(C3CC3)c(N3CCC(N4CCN(C)CC4)CC3)cc2OC)nc1Nc1ccc2nccnc2c1S(=O)(=O)NC [IV-7] | 50 to 500 | 50 to 500 | 50 to 500 | 50 to 500 | 50 to 500 | 50 to 500 |
| C=Cc1cnc(Nc2cn(CC)nc2C)nc1Nc1ccc2nccnc2c1N(C)S(C)(=O)=O [II-67] | 50 to 500 | 50 to 500 | 50 to 500 | 50 to 500 | 50 to 500 | 50 to 500 |
| C=Cc1cnc(Nc2cc(CC)c(N(C)CCN(C)C)cc2OC)nc1Nc1ccc2nccnc2c1N(C)S(C)(=O)=O [II-51] | 50 to 500 | 50 to 500 | 50 to 500 | 50 to 500 | 50 to 500 | 500 to 2500 |
| C=Cc1cnc(Nc2cc(CC)c(N3CCC(N(C)C)C3)cc2OC)nc1Nc1ccc2nccnc2c1N(C)S(C)(=O)=O (stereo not drawn) [II-3] | ≤ 50 | ≤ 50 | ≤ 50 | ≤ 50 | ≤ 50 | ≤ 50 |
| C=Cc1cnc(Nc2ccc(N3CCC(N4CCN(C)CC4)CC3)c(CC)c2)nc1Nc1ccc2nccnc2c1S(=O)(=O)NC [IV-9] | 50 to 500 | 50 to 500 | 50 to 500 | 50 to 500 | ≤ 50 | 50 to 500 |
| C=Cc1cnc(Nc2ccc3c(c2)CCN(C)CC3)nc1Nc1ccc2nccnc2c1P(C)(C)=O [Compound I-24] | 50 to 500 | 50 to 500 | 50 to 500 | 50 to 500 | 50 to 500 | ≤ 50 |
| C=Cc1cnc(Nc2ccc(N3CCC(N4CCN(C)CC4)CC3)c(CC)c2)nc1Nc1ccc2nccnc2c1N(C)S(C)(=O)=O [II-20] | ≤ 50 | ≤ 50 | ≤ 50 | ≤ 50 | ≤ 50 | ≤ 50 |
| C=Cc1cnc(Nc2cc3c(cc2C)CCN(C)C3)nc1Nc1ccc2nccnc2c1N(C)S(C)(=O)=O [II-72] | 50 to 500 | 50 to 500 | ≤ 50 | 500 to 2500 | 50 to 500 | 50 to 500 |
| C=Cc1cnc(Nc2cc(CC)c(N3CCC(N4CCN(C)CC4)CC3)cc2OC)nc1Nc1ccc2nccnc2c1NS(C)(=O)=O [II-32] | 50 to 500 | ≤ 50 | 50 to 500 | ≤ 50 | 50 to 500 | ≤ 50 |
| CCc1cc(Nc2ncc(C3=CCCC3)c(Nc3ccc4nccnc4c3P(C)(C)=O)n2)c(OC)cc1N1CCC(N2CCN(C)CC2)CC1 [Compound I-13] | 50 to 500 | ≤ 50 | 50 to 500 | 50 to 500 | 50 to 500 | ≤ 50 |
| C=Cc1cnc(Nc2ccn(CC)n2)nc1Nc1ccc2nccnc2c1N(C)S(C)(=O)=O [II-60] | 50 to 500 | 50 to 500 | 50 to 500 | 500 to 2500 | 500 to 2500 | 50 to 500 |
| C=Cc1cnc(Nc2cnn(C)c2)nc1Nc1ccc2nccnc2c1N(C)S(C)(=O)=O [II-65] | 50 to 500 | 50 to 500 | 50 to 500 | 50 to 500 | 50 to 500 | 50 to 500 |
| C=Cc1cnc(Nc2ccc(N3CCC(N4CCN(C)CC4)CC3)c(F)c2F)nc1Nc1ccc2nccnc2c1S(=O)(=O)NC [IV-10] | 50 to 500 | 50 to 500 | 50 to 500 | 50 to 500 | ≤ 50 | 50 to 500 |
| C=Cc1cnc(Nc2cc(C)c(N3CCC(N4CCN(C)CC4)CC3)cc2OC)nc1Nc1ccc2nccnc2c1S(=O)(=O)NC(C)C [IV-17] | 500 to 2500 | 500 to 2500 | 500 to 2500 | 50 to 500 | 50 to 500 | 50 to 500 |
| C=Cc1cnc(Nc2cc(CC)c(N3CCC(N4CCN(C)CC4)CC3)cc2OC)nc1Nc1ccc2nccnc2c1NS(=O)(=O)C(C)C [II-44] | 50 to 500 | 50 to 500 | ≤ 50 | 50 to 500 | 500 to 2500 | 50 to 500 |
